Among the data in ChEMBL document CHEMBL5532697, “Imidazopyrimidine: from a relatively exotic scaffold to an evolving structural motif in drug discovery” (RSC Med Chem, 2024) are IC50 and MIC values, retold here.

Assay [1] addresses cAMP and cAMP-inhibited cGMP 3',5'-cyclic phosphodiesterase 10A (Homo sapiens, UniProt Q9Y233). The experiment in a line: Inhibition of full length human PDE10A incubated for 1 hr by topcount Scintillation plate reader analysis.
The test system of assay [2] is A549. As to the kind of experiment: Antiproliferative activity against human A549 cells assessed as inhibition of cell growth by MTT assay. The format is functional, cell-based.
Another assay concerns the target Pyruvate kinase PKM (Homo sapiens, UniProt P14618). As to the kind of experiment: Inhibition of recombinant PKM2 (unknown origin).
The subject of assay [3] is A549. As to the kind of experiment: Antiproliferative activity against human A549 cells assessed as inhibition of cell growth incubated for 48 hrs by alamarblue staining based assay. As to conditions: A549, 48 h. The format is functional.
In a further assay the test system is COLO 205. The experiment in a line: Antiproliferative activity against human COLO 205 cells assessed as inhibition of cell growth incubated for 48 hrs by alamarblue staining based assay. In kind it is functional. As to conditions: COLO 205, 48 h.
Another assay deals with MCF7. The experiment in a line: Antiproliferative activity against human MCF7 cells assessed as inhibition of cell growth incubated for 48 hrs by alamarblue staining based assay. In kind it is functional. To be noted: MCF7, 48 h.
Another assay has as its system Candida dubliniensis. The experiment in a line: Antifungal activity against Candida dubliniensis CD36 assessed as reduction in fungal growth incubated for 24 hrs by CLSI based assay. In kind it is functional.
The subject of another assay is Candida tropicalis. As to the kind of experiment: Antifungal activity against Candida tropicalis MYA-3404 assessed as reduction in fungal growth incubated for 24 hrs by CLSI based assay. In kind it is functional.
For a further assay, the system named is Pichia kudriavzevii. The experiment in a line: Antifungal activity against Candida krusei ATCC 6358 assessed as reduction in fungal growth incubated for 24 hrs by CLSI based assay. In kind it is functional.
Another assay deals with Candida albicans. As to the kind of experiment: Antifungal activity against Candida albicans ATCC 10231 assessed as reduction in fungal growth incubated for 24 hrs by CLSI based assay. In kind it is functional.
The next assay deals with Kluyveromyces marxianus. As to the kind of experiment: Antifungal activity against Candida kefyr assessed as reduction in fungal growth incubated for 24 hrs by CLSI based assay. In kind it is functional.
The test system of assay [4] is Meyerozyma guilliermondii. The experiment in a line: Antifungal activity against Meyerozyma guilliermondii assessed as reduction in fungal growth incubated for 24 hrs by CLSI based assay. In kind it is functional.

SMILES strings stand for the structures. In brackets after ≈: the same amount, converted by molar mass.

Chain of Pyruvate kinase PKM (P14618 whole entry): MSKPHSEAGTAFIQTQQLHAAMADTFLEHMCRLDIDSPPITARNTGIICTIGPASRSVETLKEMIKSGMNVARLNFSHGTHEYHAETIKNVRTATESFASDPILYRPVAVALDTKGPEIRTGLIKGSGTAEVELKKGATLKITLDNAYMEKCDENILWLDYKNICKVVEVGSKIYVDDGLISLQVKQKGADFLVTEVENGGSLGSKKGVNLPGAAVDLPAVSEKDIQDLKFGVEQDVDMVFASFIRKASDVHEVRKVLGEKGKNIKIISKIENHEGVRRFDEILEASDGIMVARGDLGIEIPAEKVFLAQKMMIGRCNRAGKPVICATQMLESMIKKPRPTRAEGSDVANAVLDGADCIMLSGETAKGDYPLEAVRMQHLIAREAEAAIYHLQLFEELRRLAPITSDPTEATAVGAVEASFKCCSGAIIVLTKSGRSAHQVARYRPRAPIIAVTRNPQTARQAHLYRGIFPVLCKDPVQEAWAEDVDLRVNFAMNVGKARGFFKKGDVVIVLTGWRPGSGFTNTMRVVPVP
Chain of cAMP and cAMP-inhibited cGMP 3',5'-cyclic phosphodiesterase 10A (Q9Y233 whole entry): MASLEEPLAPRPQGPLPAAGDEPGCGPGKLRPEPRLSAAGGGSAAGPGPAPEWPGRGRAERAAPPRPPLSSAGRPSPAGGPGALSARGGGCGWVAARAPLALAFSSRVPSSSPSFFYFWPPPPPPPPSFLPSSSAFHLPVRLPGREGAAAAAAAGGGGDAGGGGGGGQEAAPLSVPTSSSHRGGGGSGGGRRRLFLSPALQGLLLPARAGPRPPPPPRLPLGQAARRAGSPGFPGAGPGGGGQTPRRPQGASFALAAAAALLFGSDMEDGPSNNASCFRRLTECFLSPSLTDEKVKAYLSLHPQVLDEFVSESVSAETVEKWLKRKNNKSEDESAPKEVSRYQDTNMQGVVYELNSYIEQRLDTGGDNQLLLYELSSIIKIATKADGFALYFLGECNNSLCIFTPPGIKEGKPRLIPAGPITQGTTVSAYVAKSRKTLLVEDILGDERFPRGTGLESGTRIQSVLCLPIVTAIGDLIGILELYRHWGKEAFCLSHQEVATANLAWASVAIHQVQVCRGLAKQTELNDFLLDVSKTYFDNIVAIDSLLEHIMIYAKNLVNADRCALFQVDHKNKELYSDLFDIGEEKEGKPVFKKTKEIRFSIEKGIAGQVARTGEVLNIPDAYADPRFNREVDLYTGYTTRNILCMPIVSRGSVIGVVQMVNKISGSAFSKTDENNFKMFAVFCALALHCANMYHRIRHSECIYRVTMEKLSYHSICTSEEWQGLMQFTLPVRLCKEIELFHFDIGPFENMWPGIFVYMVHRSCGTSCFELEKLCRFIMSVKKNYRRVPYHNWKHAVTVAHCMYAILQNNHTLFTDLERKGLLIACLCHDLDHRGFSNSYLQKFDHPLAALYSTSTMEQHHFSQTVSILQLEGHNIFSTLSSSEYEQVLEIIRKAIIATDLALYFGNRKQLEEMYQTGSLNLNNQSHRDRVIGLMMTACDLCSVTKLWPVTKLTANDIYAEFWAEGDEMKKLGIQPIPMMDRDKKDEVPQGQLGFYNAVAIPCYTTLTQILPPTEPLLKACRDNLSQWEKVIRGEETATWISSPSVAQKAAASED

`Cc1c(C(=O)N2CCCC2)cnn1C(=O)Nc1ccn2cc(-c3ccccc3)nc2n1` gave an IC50 in assay [1] of 0.003 µM.
In assay [1], `Cc1c(C(=O)NCc2c[nH]cn2)cnn1C(=O)Nc1ccn2cc(-c3ccccc3)nc2n1` displayed an IC50 of 0.002 µM.
In assay [1], `Cc1c(C(=O)N2CCC2)cnn1C(=O)Nc1ccn2cc(-c3ccc(Cl)s3)nc2n1` registered a half-maximal inhibitory concentration (IC50) of 0.004 µM.
Regarding `CC(=O)NC1(Cc2ccc(O)cc2)C(=O)N=C2N=CC=CN21` (centres undefined), the IC50 with A549 [2] stood at 6.4 µM.
In the case of `COc1ccccc1N1CCN(CC(=O)c2cnc3ncccn23)CC1`, the IC50 was found to be 0.027 µM on Pyruvate kinase PKM, 26.2 µM in the assay on A549 [3], 64.8 µM in the assay with COLO 205 and 12.2 µM in the assay on MCF7.
As for `CC(=O)NC1(Cc2cccc3ccccc23)C(=O)N=C2N=CC=CN21` (centres undefined), in the assay on A549 [2], the half-inhibitory concentration (IC50) was 2.6 µM.
Turning to `O=C(CN1CCN(c2ccccc2)CC1)c1cnc2ncccn12`, the IC50 on Pyruvate kinase PKM turned out to be 0.05 µM; with A549 [3], 28.5 µM; with COLO 205, 73.5 µM; in the assay on MCF7, 13.5 µM.
In the case of `Cc1c(C(=O)NCc2cocn2)cnn1C(=O)Nc1ccn2cc(-c3ccccc3)nc2n1`, the concentration for half-maximal inhibition (IC50) in [1] came out at 0.001 µM.
Consider `CC(=O)c1ccc(C(=O)N2CCN(CC(=O)c3cnc4ncccn34)CC2)cc1`, for which the concentration for half-maximal inhibition (IC50) worked out at 0.73 µM at Pyruvate kinase PKM, 35.4 µM with A549 [3], 104 µM in the assay on COLO 205 and 11.8 µM with MCF7.
As for `O=C(CN1CCN(c2ccc(Cl)cc2)CC1)c1cnc2ncccn12`, the IC50 is 0.79 µM at Pyruvate kinase PKM, 37.5 µM with A549 [3], 28 µM in the assay with COLO 205 and 12.9 µM with MCF7.
As to `CC(=O)NC1(Cc2ccc(Br)cc2)C(=O)N=C2N=CC=CN21` (centres undefined), the IC50 in the assay with A549 [2] was 2.1 µM.
`O=C(CN1CCN(c2ncccn2)CC1)c1cnc2ncccn12`: the IC50 at Pyruvate kinase PKM worked out at 0.45 µM; in the assay on A549 [3], 24.4 µM; in the assay on COLO 205, 65.8 µM; in the assay with MCF7 it was 14.7 µM.
For the molecule `Cc1c(C(=O)N2CCC2)cnn1C(=O)Nc1ccn2cc(-c3ccccc3)nc2n1`, half-maximal inhibition in assay [1] (IC50) was put at 0.003 µM.
As to `N#Cc1ccccc1N1CCN(CC(=O)c2cnc3ncccn23)CC1`, the IC50 came out at 1.2 µM at Pyruvate kinase PKM, 27.9 µM in the assay with A549 [3], 64.8 µM with COLO 205 and 11 µM with MCF7.
Take `CC(=O)NC1(Cc2c[nH]c3ccc(Br)cc23)C(=O)N=C2N=CC=CN21` (centres undefined): the concentration for half-maximal inhibition (IC50) in the assay on A549 [2] stood at 1.4 µM.
Consider `Cc1c(C(=O)N2CCC2)cnn1CC(=O)Nc1ccn2cc(-c3ccccc3)nc2n1`, for which the IC50 in assay [1] worked out at 0.004 µM.
Consider `Cc1c(C(=O)N2CC=CC2)cnn1C(=O)Nc1ccn2cc(-c3ccccc3)nc2n1`, for which inhibition in assay [1] was half-maximal at 0.009 µM (IC50).
Regarding `COc1ccc(C(=O)N2CCN(CC(=O)c3cnc4ncccn34)CC2)cc1`, the IC50 at Pyruvate kinase PKM came to 0.314 µM; in the assay on A549 [3] it was 24 µM; in the assay on COLO 205, 44.9 µM; with MCF7, 11.6 µM.
On to `Cc1ccc(N2CCN(CC(=O)c3cnc4ncccn34)CC2)cc1`, for which the IC50 on Pyruvate kinase PKM worked out at 0.06 µM; in the assay with A549 [3], 27.1 µM; in the assay with COLO 205 it was 57.8 µM; in the assay on MCF7, 14.5 µM.
For `O=C(CN1CCN(c2ccco2)CC1)c1cnc2ncccn12`, the IC50 at Pyruvate kinase PKM is 0.31 µM; in the assay on A549 [3] it was 19.4 µM; with COLO 205 it was 61 µM; with MCF7, 10.9 µM.
In the case of `O=C(CN1CCN(C(=O)c2ccc(Cl)cc2)CC1)c1cnc2ncccn12`, the IC50 on Pyruvate kinase PKM amounted to 1.86 µM; with A549 [3], 25.3 µM; with COLO 205 it was 28 µM; in the assay with MCF7 it was 11.8 µM.
`CC(=O)NC1(Cc2ccc(N)cc2)C(=O)N=C2N=CC=CN21` (centres undefined): the IC50 in the assay on A549 [2] was 3.2 µM.
The same measure, in the same setting: in the case of `CC(C)(C)c1nc(-c2cccc(NS(=O)(=O)c3c(F)cccc3F)c2F)c(-c2ccnc(N)n2)s1` [DABRAFENIB] it was 0.003 µM.
Consider `OC(Cn1cncn1)(Cn1cncn1)c1ccc(F)cc1F` [FLUCONAZOLE], for which the MIC stood at 0.5 µg/mL (≈ 1.63 µM) in the assay on Candida dubliniensis; 1 µg/mL (≈ 3.27 µM) in the assay with Candida tropicalis; 4 µg/mL (≈ 13.1 µM) with Pichia kudriavzevii; 0.5 µg/mL (≈ 1.63 µM) in the assay with Candida albicans; 1 µg/mL (≈ 3.27 µM) in the assay with Kluyveromyces marxianus; 1 µg/mL (≈ 3.27 µM) in assay [4].
